Patent publication US20030138485A1, “Disintegrant” (DAIICHI PHARMACEUTICAL CO., LTD., priority 1998, published 2003)
≈ marks a conversion by molar mass, not a printed value.

Legend:
[1] = Measurement of viscosity of a saturated aqueous solution; assay type: physicochemical; conditions: B-type viscometer
Description: (2) Measurement of Viscosity of a Saturated Aqueous Solution
A saturated aqueous solution of a sample was prepared at 37° C., and the resultant solution was filtered by use of a membrane filter. The viscosity of the solution was measured by use of the resultant filtrate at 37° C. by means of a B-type viscometer.

physchem = conditions: water
[2] = Increase in weight by moisture absorption; assay type: physicochemical; conditions: for moisture absorption (in words): 25° C., relative humidity 75%, seven days, Table 2; for increase in weight by moisture absorption: sample stored 25° C., 75% open air, 7 days
Description: (7) Increase in Weight by Moisture Absorption
A sample tablet was weighed before and after moisture absorption, and the increase in weight of the tablet by moisture absorption (%) was calculated.
In test Example 2, erythritol and trehalose (in the form of hydrous crystals, products of Hayashibara Shoji Inc.) and xylitol and maltose (in the form of anhydrous crystals, products of Nihon Shokuhin Kako Co., Ltd.) were stored for seven days at a temperature of 25° C. and a relative humidity of 75%. Thereafter, each of these was subjected to measurement of increase in weight by moisture absorption (%). In Reference Example 2, the increases in weight by moisture absorption (%) of cornstarch, low substituted hydroxypropylcellulose, carmellose, carmellose calcium, and carmellose sodium were measured in the same manner as in Test Example 2. These compounds had been dried in a drier at 80° C. for one hour, and then employed as samples.

[3] = general description; cited from earlier work

SMILES | Viscosity (37° C.) [1] | solubility thermodynamic (physchem) | moisture absorption (in words) [2] | increase in weight by moisture absorption [2] | heat of dissolution [3] | hygroscopicity (in words) [3] | solubility in water (in words) [3]
OC[C@@H](O)[C@@H](O)[C@H](O)[C@H](O)CO [D-Mannitol, reference compound] | 1.6 mPa · s | 240 mg/mL (≈ 1320 mM) |  |  |  |  | 
OC[C@@H](O)[C@@H](O)[C@H](O)[C@@H](O)CO [D-Sorbitol, reference compound] | 2090 or more mPa · s |  |  |  |  |  | 
OC[C@@H](O)[C@@H](O)CO [Erythritol] | 3.5 mPa · s | 450 mg/mL (≈ 3680 mM) | absorb little moisture | 0.03% | -42.9 cal/g | not hygroscopic | easily dissolved in water
OC[C@@H](O)[C@@H](O[C@@H]1O[C@H](CO)[C@H](O)[C@H](O)[C@H]1O)[C@H](O)[C@@H](O)CO [Hydrogenated lactose, reference compound] | 218 mPa · s |  |  |  |  |  | 
OC[C@H]1O[C@@H](O[C@H]2[C@H](O)[C@@H](O)C(O)O[C@@H]2CO)[C@H](O)[C@@H](O)[C@H]1O (some centres unmarked) [Lactose, reference compound] | 1.7 mPa · s |  |  |  |  |  | 
OC[C@H]1O[C@H](O[C@H]2[C@H](O)[C@@H](O)[C@H](O)O[C@@H]2CO)[C@H](O)[C@@H](O)[C@@H]1O [Maltose] | 38 mPa · s |  | absorb little moisture | 0.06% |  |  | 
CC(=O)[O-].[K+] [Potassium acetate] | 30 mPa · s |  |  |  |  |  | 
CC(=O)[O-].[Na+] [Sodium acetate] | 5.2 mPa · s |  |  |  |  |  | 
OC[C@H]1O[C@@](CO)(O[C@H]2O[C@H](CO)[C@@H](O)[C@H](O)[C@H]2O)[C@@H](O)[C@@H]1O [Sucrose, reference compound] | 1120 mPa · s | 780 mg/mL (≈ 2280 mM) |  |  |  |  | 
OC[C@H]1O[C@H](O[C@H]2O[C@H](CO)[C@@H](O)[C@H](O)[C@H]2O)[C@H](O)[C@@H](O)[C@@H]1O [Trehalose] | 11 mPa · s | 500 mg/mL (≈ 1460 mM) | absorb little moisture | 0.99% |  | not hygroscopic | easily dissolved in water
OC[C@@H](O)[C@H](O)[C@@H](O)CO [Xylitol] | 37 mPa · s | 740 mg/mL (≈ 4860 mM) | absorb little moisture | 0.05% | -35 cal/g | slightly hygroscopic | very easily dissolved in water
